Measurements: patent US20240383852A1, “ANTI-VIRAL COMPOUNDS” (INFEX Therapeutics Limited, priority 2021, published 2024)
Where a name gives a salt, the structure may show the parent alone.

What was measured:
SARS-CoV-2 PLpro = molecular target: T1, SARS-CoV-2 PLpro (Severe acute respiratory syndrome coronavirus 2, UniProt P0DTD1); assay: biochemical; conditions: 60 nM papain-like protease, 50 μM Z-RLRGG-AMC, pH 7.5, 37° C.; read-out: SARS-CoV-2 PLpro IC50
T1 construct: containing 60 nM papain-like protease

[1] = test system: human Hep G2 cells (ATCC HB-8065); assay: Cytotoxicity in Hep G2 cells (CellTiter-Glo); type: cell-based; conditions: Hep G2 cells, 100 μM test article, 24-hour exposure

For `Cc1ccc(N2CCN(C)CC2)cc1C(=O)N[C@H](C)c1cncc(-c2cnn(C)c2)c1` [Example 224, 2-Methyl-5-(4-methylpiperazin-1-yl)-N-[(1R)-1-[5-(1-methylpyrazol-4-yl)-3-pyridyl]ethyl]benzamide], the IC50 (SARS-CoV-2 PLpro) was less than 5000 nM and the “% Cell Viability” value [1] was 105.0%.

In the case of `Cc1ccc(N2CCN(C)CC2)cc1C(=O)N[C@H](C)c1cncc(-c2cn(C)nc2C)c1` [Example 225, N-[(1R)-1-[5-(1,3-Dimethylpyrazol-4-yl)-3-pyridyl]ethyl]-2-methyl-5-(4-methylpiperazin-1-yl)benzamide], the IC50 (SARS-CoV-2 PLpro) is reported as less than 10000 nM and the “% Cell Viability” value [1] is reported as 95.8%.

For `COc1c(-c2cnn(C)c2)cccc1[C@@H](C)NC(=O)c1cc(N2CCN(C)CC2)ccc1C` [Example 226, N-[(1R)-1-[2-Methoxy-3-(1-methylpyrazol-4-yl)phenyl]ethyl]-2-methyl-5-(4-methylpiperazin-1-yl)benzamide], the IC50 (SARS-CoV-2 PLpro) was less than 10000 nM and the “% Cell Viability” value [1] was 91.4%.

`Cc1ccc(N2CCN(C)CC2)cc1C(=O)N[C@H](C)c1ccc(C)c(-c2cnn(C)c2)c1` [Example 228, 2-Methyl-N-[(1R)-1-[4-methyl-3-(1-methylpyrazol-4-yl)phenyl]ethyl]-5-(4-methylpiperazin-1-yl)benzamide] was tested, and the IC50 (SARS-CoV-2 PLpro) was less than 2000 nM and the “% Cell Viability” value [1] was 69.9%.

`Cc1ccc(N2CCN(C)CC2)cc1C(=O)N[C@H](C)c1cc(F)cc(-c2cnn(C)c2)c1` [Example 229, N-[(1R)-1-[3-Fluoro-5-(1-methylpyrazol-4-yl)phenyl]ethyl]-2-methyl-5-(4-methylpiperazin-1-yl)benzamide] was tested, and the IC50 (SARS-CoV-2 PLpro) was less than 2000 nM and the “% Cell Viability” value [1] was 66.7%.

For `Cc1ccc(N2CCN(C)CC2)cc1C(=O)N[C@H](C)c1cc(-c2ccccc2)cs1` [Example 231, 2-Methyl-5-(4-methylpiperazin-1-yl)-N-[(1R)-1-(4-phenyl-2-thienyl)ethyl]benzamide], the IC50 (SARS-CoV-2 PLpro) was less than 2000 nM and the “% Cell Viability” value [1] was 1.6%.

For `Cc1ccc(N2CCN(C)CC2)cc1C(=O)N[C@H](C)c1cc(-c2cnn(C)c2)cs1` [Example 232, 2-Methyl-5-(4-methylpiperazin-1-yl)-N-[(1R)-1-[4-(1-methylpyrazol-4-yl)-2-thienyl]ethyl]benzamide], the IC50 (SARS-CoV-2 PLpro) was less than 5000 nM and the “% Cell Viability” value [1] was 75.2%.

For `COc1cc(-c2ccccc2)cc([C@@H](C)NC(=O)c2cc(N3CCN(C)CC3)ccc2C)c1` [Example 234, N-[(1R)-1-(3-Methoxy-5-phenyl-phenyl)ethyl]-2-methyl-5-(4-methylpiperazin-1-yl)benzamide], the IC50 (SARS-CoV-2 PLpro) was less than 2000 nM and the “% Cell Viability” value [1] was 0.9%.

With `COc1ccc([C@@H](C)NC(=O)c2cc(N3CCN(C)CC3)ccc2C)cc1-c1nnc(C)s1` [Example 236, N-[(1R)-1-[4-Methoxy-3-(5-methyl-1,3,4-thiadiazol-2-yl)phenyl]ethyl]-2-methyl-5-(4-methylpiperazin-1-yl)benzamide] the IC50 (SARS-CoV-2 PLpro) was less than 2000 nM and the “% Cell Viability” value [1] was 79.5%.

With `COc1ccc([C@@H](C)NC(=O)c2cc(N3CCN(C)CC3)ccc2C)cc1C1CCNCC1` [Example 237, N-[(1R)-1-[4-Methoxy-3-(4-piperidyl)phenyl]ethyl]-2-methyl-5-(4-methylpiperazin-1-yl)benzamide] the IC50 (SARS-CoV-2 PLpro) was less than 5000 nM and the “% Cell Viability” value [1] was 87.9%.

`COc1ccc([C@@H](C)NC(=O)c2cc(N3CCN(C)CC3)ccc2C)cc1C1CCN(CCC(=O)O)CC1` [Example 238, 3-[4-[2-Methoxy-5-[(1R)-1-[[2-methyl-5-(4-methylpiperazin-1-yl)benzoyl]amino]ethyl]phenyl]-1-piperidyl]propanoic Acid] was tested, and the IC50 (SARS-CoV-2 PLpro) was less than 10000 nM and the “% Cell Viability” value [1] was 119.7%.

For `COc1ccc([C@@H](C)NC(=O)c2cc(N3CC4CN(C)CC4C3)ccc2C)cc1-c1cnn(C)c1` (stereo partly drawn) [Example 240, N-[(1R)-1-[4-Methoxy-3-(1-methylpyrazol-4-yl)phenyl]ethyl]-2-methyl-5-(2-methyl-1,3,3a,4,6,6a-hexahydropyrrolo[3,4-c]pyrrol-5-yl)benzamide], the IC50 (SARS-CoV-2 PLpro) was less than 2000 nM and the “% Cell Viability” value [1] was 64.3%.

In the case of `COc1ccc([C@@H](C)NC(=O)c2cc(N3CCNC4(CC4)C3)ccc2C)cc1-c1cnn(C)c1` [Example 241, 5-(4,7-Diazaspiro[2.5]octan-7-yl)-N-[(1R)-1-[4-methoxy-3-(1-methylpyrazol-4-yl)phenyl]ethyl]-2-methyl-benzamide], the IC50 (SARS-CoV-2 PLpro) is reported as less than 5000 nM and the “% Cell Viability” value [1] is reported as 84.2%.

In the case of `COc1cc(-c2cnn(C)c2)cc([C@@H](C)NC(=O)c2cc(N3CC4CN(C)CC4C3)ccc2C)c1` (stereo partly drawn) [Example 242, N-[(1R)-1-[3-Methoxy-5-(1-methylpyrazol-4-yl)phenyl]ethyl]-2-methyl-5-(2-methyl-1,3,3a,4,6,6a-hexahydropyrrolo[3,4-c]pyrrol-5-yl)benzamide], the IC50 (SARS-CoV-2 PLpro) is reported as less than 2000 nM and the “% Cell Viability” value [1] is reported as 62.4%.

With `COc1cc(-c2cnn(C)c2)cc([C@@H](C)NC(=O)c2cc(N3CCN4CCCC4C3)ccc2C)c1` (stereo partly drawn) [Example 243, 5-(3,4,6,7,8,8a-Hexahydro-1H-pyrrolo[1,2-a]pyrazin-2-yl)-N-[(1R)-1-[3-methoxy-5-(1-methylpyrazol-4-yl)phenyl]ethyl]-2-methyl-benzamide] the IC50 (SARS-CoV-2 PLpro) was less than 2000 nM and the “% Cell Viability” value [1] was 70.9%.

With `COc1ccc([C@@H](C)NC(=O)c2cc(N3CCN(C)CC3)ccc2C)cc1-c1cnn(C)c1C` [Example 246, N-[(1R)-1-[3-(1,5-Dimethylpyrazol-4-yl)-4-methoxy-phenyl]ethyl]-2-methyl-5-(4-methylpiperazin-1-yl)benzamide] the IC50 (SARS-CoV-2 PLpro) was less than 2000 nM and the “% Cell Viability” value [1] was 81.4%.

With `COc1cc(-c2cnn(C)c2)cc([C@@H](C)NC(=O)c2cc(N3CCCN(C)CC3)ccc2C)c1` [Example 247, N-[(1R)-1-[3-Methoxy-5-(1-methylpyrazol-4-yl)phenyl]ethyl]-2-methyl-5-(4-methyl-1,4-diazepan-1-yl)benzamide] the IC50 (SARS-CoV-2 PLpro) was less than 2000 nM and the “% Cell Viability” value [1] was 56.7%.

`COc1cc(-c2ccnn2C)cc([C@@H](C)NC(=O)c2cc(N3C[C@H]4C[C@@H]3CN4C)ccc2C)c1` [Example 248, N-[(1R)-1-[3-Methoxy-5-(2-methylpyrazol-3-yl)phenyl]ethyl]-2-methyl-5-[(1R,4R)-5-methyl-2,5-diazabicyclo[2.2.1]heptan-2-yl]benzamide] was tested, and the IC50 (SARS-CoV-2 PLpro) was less than 2000 nM and the “% Cell Viability” value [1] was 55.3%.

In the case of `Cc1ccc(N2CCN(C)CC2)cc1C(=O)N[C@H](C)c1ccc(OCc2ccccc2)c(-c2cnn(C)c2)c1` [Example 249, N-[(1R)-1-[4-Benzyloxy-3-(1-methylpyrazol-4-yl)phenyl]ethyl]-2-methyl-5-(4-methylpiperazin-1-yl)benzamide], the IC50 (SARS-CoV-2 PLpro) is reported as less than 2000 nM and the “% Cell Viability” value [1] is reported as 0.5%.

With `Cc1ccc(N2CCN(C)CC2)cc1C(=O)N[C@H](C)c1ccc(OC(C)C)c(-c2cnn(C)c2)c1` [Example 250, N-[(1R)-1-[4-isopropoxy-3-(1-methylpyrazol-4-yl)phenyl]ethyl]-2-methyl-5-(4-methylpiperazin-1-yl)benzamide] the IC50 (SARS-CoV-2 PLpro) was less than 2000 nM and the “% Cell Viability” value [1] was 93.0%.

With `COc1cc(-c2cn(C)nc2C)cc([C@@H](C)NC(=O)c2cc(N3CC4CN(C)CC4C3)ccc2C)c1` (stereo partly drawn) [Example 254, N-[(1R)-1-[3-(1,3-Dimethylpyrazol-4-yl)-5-methoxy-phenyl]ethyl]-2-methyl-5-(2-methyl-1,3,3a,4,6,6a-hexahydropyrrolo[3,4-c]pyrrol-5-yl)benzamide] the IC50 (SARS-CoV-2 PLpro) was less than 2000 nM and the “% Cell Viability” value [1] was 57.0%.

With `COc1cc(-c2cn(C)nc2C)cc([C@@H](C)NC(=O)c2cc(N3CCN(CC4CC4)CC3)ccc2C)c1` [Example 255, 5-[4-(Cyclopropylmethyl)piperazin-1-yl]-N-[(1R)-1-[3-(1,3-dimethylpyrazol-4-yl)-5-methoxy-phenyl]ethyl]-2-methyl-benzamide hydrochloride salt] the IC50 (SARS-CoV-2 PLpro) was less than 2000 nM and the “% Cell Viability” value [1] was 70.3%.

With `COc1cc(-c2cn(C)nc2C)cc([C@@H](C)NC(=O)c2cc(N3CCN4CCCC4C3)ccc2C)c1` (stereo partly drawn) [Example 256, 5-(3,4,6,7,8,8a-Hexahydro-1H-pyrrolo[1,2-a]pyrazin-2-yl)-N-[(1R)-1-[3-(1,3-dimethylpyrazol-4-yl)-5-methoxy-phenyl]ethyl]-2-methyl-benzamide] the IC50 (SARS-CoV-2 PLpro) was less than 2000 nM and the “% Cell Viability” value [1] was 70.1%.

In the case of `COc1ccc([C@@H](C)NC(=O)c2cc(N3CC4(CCNCC4)C3)ccc2C)cc1-c1cnn(C)c1` [Example 258, 5-(2,7-Diazaspiro[3.5]nonan-2-yl)-N-[(1R)-1-[4-methoxy-3-(1-methylpyrazol-4-yl)phenyl]ethyl]-2-methyl-benzamide], the IC50 (SARS-CoV-2 PLpro) is reported as less than 2000 nM and the “% Cell Viability” value [1] is reported as 81.8%.

With `COc1ccc([C@@H](C)NC(=O)c2cc(N3CCC4(CC3)CNC4)ccc2C)cc1-c1cnn(C)c1` [Example 259, 5-(2,7-Diazaspiro[3.5]nonan-7-yl)-N-[(1R)-1-[4-methoxy-3-(1-methylpyrazol-4-yl)phenyl]ethyl]-2-methyl-benzamide] the IC50 (SARS-CoV-2 PLpro) was less than 2000 nM and the “% Cell Viability” value [1] was 111.1%.

With `COc1cc(-c2cnn(C)c2)cc([C@@H](C)NC(=O)c2cc(N3CC4CNCC4C3)ccc2C)c1` (stereo partly drawn) [Example 262, 5-(2,3,3a,4,6,6a-Hexahydro-1H-pyrrolo[3,4-c]pyrrol-5-yl)-N-[(1R)-1-[3-methoxy-5-(1-methylpyrazol-4-yl)phenyl]ethyl]-2-methyl-benzamide] the IC50 (SARS-CoV-2 PLpro) was less than 2000 nM and the “% Cell Viability” value [1] was 42.4%.

In the case of `COc1cc(-c2cnn(C)c2)cc([C@@H](C)NC(=O)c2cc(N3CCCNCC3)ccc2C)c1` [Example 263, 5-(1,4-Diazepan-1-yl)-N-[(1R)-1-[3-methoxy-5-(1-methylpyrazol-4-yl)phenyl]ethyl]-2-methyl-benzamide], the IC50 (SARS-CoV-2 PLpro) is reported as less than 2000 nM and the “% Cell Viability” value [1] is reported as 56.4%.

`COc1cc(-c2cnn(C)c2)cc([C@@H](C)NC(=O)c2cc(N3CCNC4(CC4)C3)ccc2C)c1` [Example 264, 5-(4,7-Diazaspiro[2.5]octan-7-yl)-N-[(1R)-1-[3-methoxy-5-(1-methylpyrazol-4-yl)phenyl]ethyl]-2-methyl-benzamide] was tested, and the IC50 (SARS-CoV-2 PLpro) was less than 2000 nM and the “% Cell Viability” value [1] was 68.5%.

For `COc1cc(-c2cn(C)nc2C)cc([C@@H](C)NC(=O)c2cc(N3CCCNCC3)ccc2C)c1` [Example 265, 5-(1,4-Diazepan-1-yl)-N-[(1R)-1-[3-(1,3-dimethylpyrazol-4-yl)-5-methoxy-phenyl]ethyl]-2-methyl-benzamide], the IC50 (SARS-CoV-2 PLpro) was less than 2000 nM and the “% Cell Viability” value [1] was 40.7%.
